The values below come from patent US9126999B2, “Tetrahydropyrazolopyrimidine compounds” (EISAI R&D MANAGEMENT CO., LTD., priority 2012, dated 2015).

Experiment [1] deals with NZBWF1/J mice. Kind of experiment: NZBxNZW strain lupus disease model. The note with it: NZB/W model; for anti-dsDNA titers: QD PO; for proteinuria: UACR. It counts as in vivo, mouse. How it is done:
Figure Legend: Female NZBWF1/J mice were received at 6 weeks of age, baseline bleeds were performed, and mice were monitored for disease progression by following anti-dsDNA titers. At 20 weeks of age, mice were randomized into groups with equivalent median anti-dsDNA titers and treated at 23 weeks of age with Vehicle (Veh; 0.5% methyl-cellulose) alone or 33, 100, or 300 mg/kg ER-892887 once-a-day orally (QD PO). All mice were sacrificed at 45 weeks of age (22 weeks total treatment) and blood plasma anti-dsDNA titers were determined by ELISA. (A) Impact of ER-892887 treatment over time on anti-dsDNA titers. (B) Bar graph of +22 weeks treatment data for ER-892887 derived from data shown in (A). (C) Just prior to termination at 45 weeks of age (following 22 weeks of treatment), urine was collected from individual mice, and the Urinary Albumin Creatinine Ratio (UACR, proteinuria) was determined for each animal as an indirect measure of kidney function. (D) Summary of mortality observed in this study. (E) At the time of sacrifice, kidneys were collected from individual mice, fixed in 10% formalin for 24 hours, embedded in paraffin, and H&E stained sections were generated for histopathology assessment in a blinded fashion. Statistical significance was determined by Mann-Whitney test for (C).
Figure Legend. Female NZBWF1/J mice were received at 8 weeks of age, baseline bleeds were performed, and mice were monitored for disease progression by following anti-dsDNA titers. At 24 weeks of age, mice were randomized into groups with equivalent median anti-dsDNA titers and treated at 25 weeks of age QD PO with Vehicle (Veh; 0.5% methyl-cellulose) alone or 33, 100, or 300 mg/kg ER-892887. Anti-dsDNA titers were determined by ELISA on blood plasma samples at the time points indicated. (A) Impact of compound treatment on median anti-dsDNA titers over time up to +17 weeks of treatment. (B) Impact of compound treatment on median anti-dsDNA at the +13 weeks of treatment time point only from data shown in (A). (C) After 13 weeks (top graph) or 17 weeks (bottom graph) of compound treatment, urine was collected from individual mice, and the Urinary Albumin Creatinine Ratio (UACR, proteinuria) was determined for each animal as an indirect measure of kidney function. Mice indicated within the circle with high UACR were those animals that died between the +13 wks and +17 wks of treatment (statistical significance was determined by Mann-Whitney test). (D) Blood urea nitrogen (BUN) measured in the plasma from select groups after 13 weeks of treatment. (E) Mortality curves for Vehicle versus compound treated mice up to 17 weeks of treatment. […] (F) Summary of mortality observed in this study.
Figure Legend: Female NZBWF1/J mice were received at 6 weeks of age, baseline bleeds were performed, and mice were monitored for disease progression by following anti-dsDNA titers. At 24 weeks of age, mice were randomized into groups with equivalent median anti-dsDNA titers and treated with Vehicle (Veh; 0.5% methyl-cellulose) alone or 300 mg/kg ER-885454 once-a-day orally (QD PO). All mice were sacrificed at 47 weeks of age (23 weeks total treatment) and blood plasma anti-dsDNA titers were determined by ELISA (A). (B) Just prior to termination at 47 weeks of age, urine was collected from individual mice, and Urinary Albumin Creatinine Ratio (UACR, proteinuria) was determined for each animal as an indirect measure of kidney function. (C) At the time of sacrifice, kidneys were collected from individual mice, fixed in 10% formalin for 24 hours, embedded in paraffin, and H&E stained sections were generated for histopathology assessment in a blinded fashion. Statistical significance was determined by Mann-Whitney test for (A) above.
Figure Legend: Female NZBWF1/J mice were received at 4 weeks of age, baseline bleeds were performed at 10 and 26 weeks, and mice were monitored for disease progression by following anti-dsDNA titers and proteinuria. […]

Experiment [2] has as its target Human TLR4 (Homo sapiens, UniProt O00206). Kind of experiment: Human PBMC cell-based assay, LPS stimulus, IL-6 ELISA. On the set-up: endogenous in cells; host or cells: primary human PBMC from healthy donor blood. Particulars: Hu PBMC; ligand LPS; analyte IL-6. How it is done: Human peripheral blood mononuclear cells (PBMC) were isolated from freshly-drawn heparinized (10 USP units/ml, Hospira, Lakeforest, Ill.) healthy donor whole blood by density gradient (Histopaque® 1077, Sigma, Inc., St. Louis, Mo.). Briefly, 25 ml blood was diluted with 15 ml PBS (without Ca^2+, Mg^2+) in a 50 ml conical tube, and 12 ml Histopaque was underlaid using a spinal needle. Tubes were centrifuged for 45 minutes at 1200 rpm (350×g), and PBMC were collected from the buffy coat. Cells were then washed twice in PBS, and red blood cells were lysed by suspension in 5 ml ammonium chloride solution (1× Red Blood Cell Lysis Buffer, eBioscience) for 5 minutes at room temperature. […]
Antagonist compounds solubilized and serial diluted in 100% DMSO were added in triplicate to cells to yield a final concentration of 0.1% DMSO (v/v). […] Cell culture supernatants were collected, and levels of various human cytokines were assessed as indicated by standard ELISA procedure according to the manufacturer's recommended protocol (BD Biosciences, Inc., San Diego, Calif.).
(In general: In an ELISA, binding on a coated surface is turned into a signal by an enzyme label.)

“Also recorded” adds a separate entry of the source.

Chain of Human TLR4 (O00206 24-839): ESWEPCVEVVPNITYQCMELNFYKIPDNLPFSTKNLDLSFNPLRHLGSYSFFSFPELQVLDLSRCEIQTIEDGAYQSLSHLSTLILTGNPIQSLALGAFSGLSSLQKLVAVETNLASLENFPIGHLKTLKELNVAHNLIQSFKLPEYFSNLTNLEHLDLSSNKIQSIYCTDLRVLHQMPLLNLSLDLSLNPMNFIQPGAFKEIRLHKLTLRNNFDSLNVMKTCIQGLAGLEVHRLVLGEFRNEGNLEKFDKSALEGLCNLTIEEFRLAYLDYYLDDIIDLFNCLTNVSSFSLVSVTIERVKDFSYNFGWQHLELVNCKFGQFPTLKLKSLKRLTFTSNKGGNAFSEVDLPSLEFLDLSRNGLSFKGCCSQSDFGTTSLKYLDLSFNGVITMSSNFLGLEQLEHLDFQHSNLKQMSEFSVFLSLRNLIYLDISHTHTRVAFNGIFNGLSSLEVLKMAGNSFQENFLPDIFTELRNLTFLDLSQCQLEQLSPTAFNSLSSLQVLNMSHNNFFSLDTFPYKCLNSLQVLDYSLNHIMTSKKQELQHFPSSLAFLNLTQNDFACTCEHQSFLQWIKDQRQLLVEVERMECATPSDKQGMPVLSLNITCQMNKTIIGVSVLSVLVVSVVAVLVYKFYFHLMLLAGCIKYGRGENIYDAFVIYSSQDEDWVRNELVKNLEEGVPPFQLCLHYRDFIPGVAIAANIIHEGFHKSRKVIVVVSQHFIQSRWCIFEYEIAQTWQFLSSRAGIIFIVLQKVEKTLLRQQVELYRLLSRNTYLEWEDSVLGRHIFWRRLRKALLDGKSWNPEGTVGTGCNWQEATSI
Chain of Human TLR4 (Q9Y6Y9 19-160 partner): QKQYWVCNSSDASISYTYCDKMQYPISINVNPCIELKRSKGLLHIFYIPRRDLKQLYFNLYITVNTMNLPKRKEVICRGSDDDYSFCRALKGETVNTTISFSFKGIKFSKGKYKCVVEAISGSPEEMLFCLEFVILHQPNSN

As usually defined, the IC50 is the midpoint of a concentration-inhibition curve. As to `COc1ccc([C@@H]2C[C@H](C(F)(F)F)n3nc(-c4ccc(C(=O)N5CCNCC5)cc4)cc3N2)cc1OC` [ER-892887, (4-((5S,7R)-5-(3,4-dimethoxyphenyl)-7-(trifluoromethyl)-4,5,6,7-tetrahydropyrazolo[1,5-a]pyrimidin-2-yl)phenyl)(piperazin-1-yl)methanone], in experiment [1], the “delay of development of proteinuria compared with two drugs commonly used in the treatment of human lupus” value is “more effectively”; the “efficacy in combination with hydroxychloroquine and prednisolone” value is on record as “efficacious”; the “histological signs of glomerulonephritis” value is on record as “reduced”; the anti-dsDNA titers result is “reduced”. For the same compound, in experiment [1], the proteinuria result is recorded as “reduced proteinuria”. The survival entry in experiment [1] (vs. Vehicle, 33-100 mg/kg QD PO, long-term dosing) is “statistically significant survival benefit; also recorded: afforded survival benefit; also recorded: significantly enhanced survival”. Besides, in experiment [2], the IC50 is over 10 µM.
For `COc1ccc([C@@H]2C[C@H](C(F)(F)F)n3nc(-c4ccncc4)cc3N2)cc1OC` [ER-885454], in experiment [1], the “histological signs of glomerulonephritis” value is “reduced”, the anti-dsDNA titers result is on record as “reduced” and the proteinuria entry was “reduced”.
